In article PMC12298351, “Novel 3,19-(N-Phenyl-3-(4-fluorophenyl)-pyrazole) Acetal of Andrographolide Promotes Cell Cycle Arrest and Apoptosis in MDA-MB-231 Breast Cancer Cells” (Pharmaceuticals, 2025):

Experiments:
HCT-15 = details: HCT-15, Colon; for CC50: read-out: 50% lethal concentration (LC50)
SF-539 = details: SF-539, CNS; for CC50: read-out: 50% lethal concentration (LC50)
OVCAR-8 = details: OVCAR-8, Ovarian; for CC50: read-out: 50% lethal concentration (LC50)
NCI-H460 = details: for Total growth inhibition (TGI) / CC50: NCI-H460, Non-Small Cell Lung; for GI50: NCI-H460, Non-Small-Cell Lung; for CC50: read-out: 50% lethal concentration (LC50)
COLO 205 = details: COLO 205, Colon; for CC50: read-out: 50% lethal concentration (LC50)
SF-295 = details: SF-295, CNS; for CC50: read-out: 50% lethal concentration (LC50)
SN12C = details: for GI50 / Total growth inhibition (TGI): Renal; for CC50: read-out: 50% lethal concentration (LC50), Renal
RPMI-8226 = details: RPMI-8226, Leukemia; for CC50: read-out: 50% lethal concentration (LC50)
HCT-116 = type: cell-based; details: HCT-116, Colon
786-0 = details: 786-0, Renal; for CC50: read-out: 50% lethal concentration (LC50)
TK-10 = type: cell-based; details: TK-10, Renal; for CC50: read-out: 50% lethal concentration (LC50)
SNB-19 = type: cell-based; details: SNB-19, CNS; for CC50: read-out: 50% lethal concentration (LC50)
SK-OV-3 = details: SK-OV-3, Ovarian; for CC50: read-out: 50% lethal concentration (LC50)
A498 = details: A498, Renal; for CC50: read-out: 50% lethal concentration (LC50)
HS 578T = details: for CC50: read-out: 50% lethal concentration (LC50), Breast
OVCAR-4 = type: cell-based; details: OVCAR-4, Ovarian; for CC50: read-out: 50% lethal concentration (LC50)
HOP-92 = details: for Total growth inhibition (TGI) / CC50: HOP-92, Non-Small Cell Lung; for GI50: HOP-92, Non-Small-Cell Lung; for CC50: read-out: 50% lethal concentration (LC50)
SNB-75 = details: SNB-75, CNS; for CC50: read-out: 50% lethal concentration (LC50)
NCI/ADR-RES = details: Ovarian
K-562 = details: K-562, Leukemia; for CC50: read-out: 50% lethal concentration (LC50)
MDA-MB-435 = details: MDA-MB-435, Melanoma; for CC50: read-out: 50% lethal concentration (LC50)
UACC-257 = details: UACC-257, Melanoma; for CC50: read-out: 50% lethal concentration (LC50)
UACC-62 = details: UACC-62, Melanoma; for CC50: read-out: 50% lethal concentration (LC50)
NCI-H226 = details: for Total growth inhibition (TGI) / CC50: NCI-H226, Non-Small Cell Lung; for GI50: NCI-H226, Non-Small-Cell Lung; for CC50: read-out: 50% lethal concentration (LC50)
UO-31 = details: UO-31, Renal; for CC50: read-out: 50% lethal concentration (LC50)
RXF 393 = details: RXF 393, Renal; for CC50: read-out: 50% lethal concentration (LC50)
NCI-H522 = details: for Total growth inhibition (TGI) / CC50: NCI-H522, Non-Small Cell Lung; for GI50: NCI-H522, Non-Small-Cell Lung; for CC50: read-out: 50% lethal concentration (LC50)
EKVX = details: for Total growth inhibition (TGI): Non-Small Cell Lung; for GI50: Non-Small-Cell Lung; for CC50: read-out: 50% lethal concentration (LC50), Non-Small Cell Lung
OVCAR-3 = details: OVCAR-3, Ovarian; for CC50: read-out: 50% lethal concentration (LC50)
PC-3 = details: PC-3, Prostate; for CC50: read-out: 50% lethal concentration (LC50)
CCRF-CEM = details: for GI50 / Total growth inhibition (TGI): Leukemia; for CC50: read-out: 50% lethal concentration (LC50), Leukemia

C=C1CCC2C3(C)COC(c4cn(-c5ccccc5)nc4-c4ccccc4)OC3CCC2(C)C1CC=C1C(=O)OCC1O (stereo not drawn) [1a]
GI50 (HCT-15): 1.72 µM
Total growth inhibition (TGI) (HCT-15): 3.45 µM
CC50 (HCT-15): 6.91 µM
GI50 (SF-539): 1.84 µM
Total growth inhibition (TGI) (SF-539): 3.26 µM
CC50 (SF-539): 5.77 µM
GI50 (OVCAR-8): 1.81 µM
Total growth inhibition (TGI) (OVCAR-8): 4.02 µM
CC50 (OVCAR-8): > 100 µM
Total growth inhibition (TGI) (NCI-H460): 3.35 µM
GI50 (NCI-H460): 1.66 µM
CC50 (NCI-H460): 6.74 µM
GI50 (COLO 205): 2.01 µM
Total growth inhibition (TGI) (COLO 205): 3.57 µM
CC50 (COLO 205): 6.31 µM
GI50 (SF-295): 1.64 µM
Total growth inhibition (TGI) (SF-295): 3.05 µM
CC50 (SF-295): 5.67 µM
GI50 (SN12C): 1.87 µM
Total growth inhibition (TGI) (SN12C): 3.96 µM
CC50 (SN12C): 8.37 µM
GI50 (RPMI-8226): 2.02 µM
Total growth inhibition (TGI) (RPMI-8226): 8.62 µM
CC50 (RPMI-8226): > 100 µM
GI50 (HCT-116): 1.61 µM
Total growth inhibition (TGI) (HCT-116): 3.55 µM
CC50 (HCT-116; read-out: 50% lethal concentration (LC50)): 7.83 µM
GI50 (786-0): 2.03 µM
Total growth inhibition (TGI) (786-0): 4.47 µM
CC50 (786-0): 9.83 µM
GI50 (TK-10): 1.78 µM
Total growth inhibition (TGI) (TK-10): 3.39 µM
CC50 (TK-10): 6.46 µM
GI50 (SNB-19): 1.85 µM
Total growth inhibition (TGI) (SNB-19): 3.78 µM
CC50 (SNB-19): 7.73 µM
GI50 (SK-OV-3): 1.77 µM
Total growth inhibition (TGI) (SK-OV-3): 18.7 µM
CC50 (SK-OV-3): 91.1 µM
GI50 (A498): 2.34 µM
Total growth inhibition (TGI) (A498): 6.47 µM
CC50 (A498): 27.7 µM
GI50 (HS 578T; Breast): 2.31 µM
Total growth inhibition (TGI) (HS 578T; Breast): 6.54 µM
CC50 (HS 578T): > 100 µM
GI50 (OVCAR-4): 2.31 µM
CC50 (OVCAR-4): > 100 µM
Total growth inhibition (TGI) (HOP-92): 2.99 µM
GI50 (HOP-92): 1.53 µM
CC50 (HOP-92): 5.83 µM
GI50 (SNB-75): 1.36 µM
Total growth inhibition (TGI) (SNB-75): 3.9 µM
CC50 (SNB-75): 26.5 µM
GI50 (NCI/ADR-RES): 4.75 µM
Total growth inhibition (TGI) (NCI/ADR-RES): 5.31 µM
GI50 (K-562): 2.97 µM
Total growth inhibition (TGI) (K-562): > 100 µM
CC50 (K-562): > 100 µM
GI50 (MDA-MB-435): 1.86 µM
Total growth inhibition (TGI) (MDA-MB-435): 4.19 µM
CC50 (MDA-MB-435): 9.43 µM
GI50 (UACC-257): 1.9 µM
Total growth inhibition (TGI) (UACC-257): 3.8 µM
CC50 (UACC-257): 7.62 µM
GI50 (UACC-62): 1.65 µM
Total growth inhibition (TGI) (UACC-62): 3.2 µM
CC50 (UACC-62): 6.22 µM
Total growth inhibition (TGI) (NCI-H226): 4.31 µM
GI50 (NCI-H226): 1.95 µM
CC50 (NCI-H226): 9.55 µM
GI50 (UO-31): 1.35 µM
Total growth inhibition (TGI) (UO-31): 2.69 µM
CC50 (UO-31): 5.36 µM
GI50 (RXF 393): 1.4 µM
Total growth inhibition (TGI) (RXF 393): 2.84 µM
CC50 (RXF 393): 5.76 µM
Total growth inhibition (TGI) (NCI-H522): 3.86 µM
GI50 (NCI-H522): 1.9 µM
CC50 (NCI-H522): 7.85 µM
Total growth inhibition (TGI) (EKVX): 4.66 µM
GI50 (EKVX): 2.07 µM
CC50 (EKVX): > 100 µM
GI50 (OVCAR-3): 1.82 µM
Total growth inhibition (TGI) (OVCAR-3): 3.35 µM
CC50 (OVCAR-3): 6.16 µM
GI50 (PC-3): 1.95 µM
Total growth inhibition (TGI) (PC-3): 4.7 µM
CC50 (PC-3): 66.9 µM
GI50 (CCRF-CEM): 0.59 µM
Total growth inhibition (TGI) (CCRF-CEM): 3.37 µM
CC50 (CCRF-CEM): > 100 µM

C=C1CCC2C3(C)COC(c4cn(-c5ccccc5)nc4-c4cccc([N+](=O)[O-])c4)OC3CCC2(C)C1CC=C1C(=O)OCC1O (stereo not drawn) [1b]
GI50 (HCT-15): 1.74 µM
Total growth inhibition (TGI) (HCT-15): 3.58 µM
CC50 (HCT-15): 7.37 µM
GI50 (SF-539): 1.74 µM
Total growth inhibition (TGI) (SF-539): 3.18 µM
CC50 (SF-539): 5.79 µM
GI50 (OVCAR-8): 1.9 µM
Total growth inhibition (TGI) (OVCAR-8): 5.04 µM
CC50 (OVCAR-8): > 100 µM
Total growth inhibition (TGI) (NCI-H460): 4.8 µM
GI50 (NCI-H460): 2.27 µM
CC50 (NCI-H460): 11.3 µM
GI50 (COLO 205): 2.41 µM
Total growth inhibition (TGI) (COLO 205): 5.06 µM
CC50 (COLO 205): 12.7 µM
GI50 (SF-295): 1.68 µM
Total growth inhibition (TGI) (SF-295): 3.19 µM
CC50 (SF-295): 6.05 µM
GI50 (SN12C): 2.93 µM
Total growth inhibition (TGI) (SN12C): 10.3 µM
CC50 (SN12C): > 100 µM
GI50 (RPMI-8226): 2.45 µM
Total growth inhibition (TGI) (RPMI-8226): > 100 µM
CC50 (RPMI-8226): > 100 µM
GI50 (HCT-116): 1.99 µM
Total growth inhibition (TGI) (HCT-116): 4.25 µM
GI50 (786-0): 3.04 µM
Total growth inhibition (TGI) (786-0): 10.3 µM
CC50 (786-0): > 100 µM
GI50 (TK-10): 2.22 µM
Total growth inhibition (TGI) (TK-10): 5.82 µM
CC50 (TK-10): > 100 µM
GI50 (SNB-19): 3.64 µM
Total growth inhibition (TGI) (SNB-19): 15 µM
CC50 (SNB-19): 60 µM
GI50 (SK-OV-3): 2.08 µM
Total growth inhibition (TGI) (SK-OV-3): > 100 µM
CC50 (SK-OV-3): > 100 µM
GI50 (A498): 1.9 µM
Total growth inhibition (TGI) (A498): 45.4 µM
CC50 (A498): > 100 µM
GI50 (HS 578T; Breast): 2.69 µM
CC50 (HS 578T): > 100 µM
GI50 (OVCAR-4): 4.05 µM
Total growth inhibition (TGI) (OVCAR-4): > 100 µM
CC50 (OVCAR-4): > 100 µM
Total growth inhibition (TGI) (HOP-92): 3.64 µM
GI50 (HOP-92): 1.86 µM
CC50 (HOP-92): 7.11 µM
GI50 (SNB-75): 7.34 µM
Total growth inhibition (TGI) (SNB-75): 50 µM
CC50 (SNB-75): > 100 µM
GI50 (NCI/ADR-RES): 2.98 µM
GI50 (K-562): 2.16 µM
Total growth inhibition (TGI) (K-562): > 100 µM
CC50 (K-562): > 100 µM
GI50 (MDA-MB-435): 3.03 µM
Total growth inhibition (TGI) (MDA-MB-435): 18.3 µM
CC50 (MDA-MB-435): > 100 µM
GI50 (UACC-257): 1.8 µM
Total growth inhibition (TGI) (UACC-257): 3.68 µM
CC50 (UACC-257): 7.53 µM
GI50 (UACC-62): 1.69 µM
Total growth inhibition (TGI) (UACC-62): 3.46 µM
CC50 (UACC-62): 7.06 µM
Total growth inhibition (TGI) (NCI-H226): 6.59 µM
GI50 (NCI-H226): 2.38 µM
CC50 (NCI-H226): > 100 µM
GI50 (UO-31): 1.82 µM
Total growth inhibition (TGI) (UO-31): 5.46 µM
CC50 (UO-31): 35.7 µM
GI50 (RXF 393): 1.62 µM
Total growth inhibition (TGI) (RXF 393): 3.2 µM
CC50 (RXF 393): 6.32 µM
Total growth inhibition (TGI) (NCI-H522): 3.41 µM
GI50 (NCI-H522): 1.75 µM
CC50 (NCI-H522): 6.65 µM
Total growth inhibition (TGI) (EKVX): 7.98 µM
GI50 (EKVX): 2.75 µM
CC50 (EKVX): > 100 µM
GI50 (OVCAR-3): 1.87 µM
Total growth inhibition (TGI) (OVCAR-3): 3.75 µM
CC50 (OVCAR-3): 7.55 µM
GI50 (PC-3): 2.75 µM
Total growth inhibition (TGI) (PC-3): 9.04 µM
CC50 (PC-3): > 100 µM
GI50 (CCRF-CEM): 1.14 µM
Total growth inhibition (TGI) (CCRF-CEM): 5.01 µM
CC50 (CCRF-CEM): > 100 µM
